Reference: PubChem BioAssay (NCI)
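These data come from cells grown in 96-well plates and exposed to compound for 48 hours at five concentrations. Abbreviation: GI50, concentration required for 50% inhibition of growth. Definition used: TGI = concentration required for complete inhibition of growth.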

Assays:
Assay in all cases: NCI-60 cell line screen, 48 h
[1] = tested on: M14 melanoma
[2] = tested on: KM12 colon
[3] = tested on: HOP-62 NSCLC
[4] = tested on: RXF 393 renal
[5] = tested on: HL-60(TB) leukemia
[6] = tested on: SK-MEL-5 melanoma
[7] = tested on: SF-268 CNS
[8] = tested on: K-562 leukemia
[9] = tested on: NCI-H522 lung

Row | Compound | TGI [1] [µM] | TGI [2] [µM] | TGI [3] [µM] | TGI [4] [µM] | TGI [5] [µM] | TGI [6] [µM] | TGI [7] [µM] | TGI [8] [µM] | TGI [9] [µM] | GI50 [9] [µM] | GI50 [1] [µM] | GI50 [2] [µM] | GI50 [3] [µM] | GI50 [4] [µM] | GI50 [5] [µM] | GI50 [6] [µM] | GI50 [7] [µM] | GI50 [8] [µM]
1 | COC1[C@H](NC(=O)OC(C)(C)C)C(=O)N1Cc1ccccc1 (some centres not stated) | > 100 | > 100 | > 100 | > 100 | > 100 | > 100 | > 100 | > 100 |  |  |  |  |  |  |  |  |  | 
2 | Cc1cc(=O)n(-c2c(C)cccc2Cl)c(/C=C(\O)c2ccncc2)n1 | > 100 | > 100 | > 100 | > 100 | > 100 | > 100 | > 100 | > 100 | > 100 |  |  |  |  |  |  |  |  | 
3 | CN(C)C(=O)NC(=S)N(C)C | > 100 | > 100 | 1.52 | > 100 | > 100 | > 100 | > 100 | > 100 | > 100 |  |  |  |  |  |  |  |  | 
4 | CCCCCCCCCCSC(=O)NC | 50 | > 100 |  | 44.1 | 39.9 | 45.6 | > 100 | 67.7 | 54.6 |  |  |  |  |  |  |  |  | 
5 | Clc1ccc(OCc2nnc3n2N=C(c2ccc(Br)cc2)CS3)cc1 |  | > 100 |  | 61.8 | > 100 |  |  | > 100 |  |  |  |  |  |  |  |  |  | 
6 | O=C(N/C(=C\c1ccccc1Cl)c1nc2ccccc2[nH]1)c1ccccc1 | 54.3 | > 100 |  | 91.5 | 71.4 | 34.2 | > 100 | > 100 | 72.5 |  |  |  |  |  |  |  |  | 
7 | CN(C)CCn1cnc2ncccc2c1=O | > 100 | > 100 | > 100 | > 100 |  | > 100 | > 100 | > 100 | > 100 |  |  |  |  |  |  |  |  | 
8 | CCOC(=O)C(NO)C(Sc1ccccc1)c1ccc(OC)cc1 (configuration not stated) | > 100 | > 100 | > 100 | 52.3 |  | > 100 | > 100 |  | > 100 |  |  |  |  |  |  |  |  | 
9 | COC(=O)C1C(=O)O[C@@H](c2ccc(OC)c(OC)c2OC)C1C(=O)OC (mixture of isomers) | > 100 | > 100 | > 100 | > 100 | > 100 | > 100 | > 100 | > 100 | > 100 |  |  |  |  |  |  |  |  | 
10 | CC1CCC(=O)C(C(O)CC2CC(=O)N(c3ccccc3)C(=O)C2)C1 (configuration not stated) | > 100 | > 100 | > 100 | > 100 | > 100 |  | > 100 | > 100 | > 100 |  |  |  |  |  |  |  |  | 
11 | CN(NC1OC(CO)C(O)C(O)C1O)c1ccccc1 (configuration not stated) | > 100 | > 100 | > 100 | > 100 | > 100 | > 100 | > 100 | > 100 | > 100 |  |  |  |  |  |  |  |  | 
12 | COc1cc(-c2ccc(NC(=O)SCCC(=O)O)cc2OC)ccc1NC(=O)SCCC(=O)O | > 100 | > 100 | > 100 | > 100 | > 100 | > 100 | > 100 | > 100 | > 100 |  |  |  |  |  |  |  |  | 
13 | O=C1C2c3[nH]c4ccccc4c3C3CCCCCC3C2C(=O)N1c1ccccc1 (configuration not stated) | > 49.3 | > 100 | 41.7 | 37.7 | > 70.3 | > 100 | 99.8 | > 100 | > 100 |  |  |  |  |  |  |  |  | 
14 | CC(=O)[CH-]C(=O)c1ccccc1.CC(=O)[CH-]C(=O)c1ccccc1.CC(C)CCC[C@H](C)C1CCC2[C@@H]3CC=C4C[C@@H]([O-])CC[C@]4(C)C3CC[C@@]21C.CC(C)CCC[C@H](C)C1CCC2[C@@H]3CC=C4C[C@@H]([O-])CC[C@]4(C)C3CC[C@@]21C.Cl.[Ti+4] (some centres not stated) | > 25 | > 25 | > 25 | > 25 | > 25 | > 25 | > 25 | > 25 | > 25 | > 25 | > 25 | > 25 | > 25 | > 25 | 13.7 | > 25 | > 25 | > 25
15 | O=C(CO[N+](=O)[O-])OC/C=C/c1ccccc1 | > 100 | > 100 | > 100 | > 100 | 60.6 |  | > 100 | > 100 | > 100 |  |  |  |  |  |  |  |  | 
16 | CC(=O)Nc1ccc(/C=C2\N=C(c3ccccc3)OC2=O)cc1 | > 100 | > 100 | > 100 | > 100 | > 100 | > 100 | > 100 | > 100 |  |  |  |  |  |  |  |  |  | 
17 | COC1OC(CBr)C(OC(=O)c2ccccc2)C(OS(=O)(=O)c2ccc(C)cc2)C1Br (configuration not stated) | > 100 | > 100 | > 100 | > 100 | > 100 |  | > 100 | > 100 | > 100 |  |  |  |  |  |  |  |  | 
18 | COc1ccc(S(=O)(=O)N[C@H](C(=O)O)c2ccccc2)cc1 | > 100 | > 100 | > 100 | > 100 |  | > 100 | > 100 | > 100 |  |  |  |  |  |  |  |  |  | 
19 | CCOc1ccc(OCC)c([P+](c2ccccc2)(c2ccccc2)c2ccccc2)c1 | 12.6 | 10.1 | 3.92 | 15.7 | 0.529 | 1.14 | 24.4 | 17 |  |  |  |  |  |  |  |  |  | 
